Assay results taken from patent publication US7776558B2, “Human G protein-coupled receptor and modulators thereof for the treatment of cell death-related disorders” (Arena Pharmaceuticals, Inc., priority 2003, dated 2010).
Where no end group is shown, it is not given here.

Legend:
FPRL2 = target: T1, FPRL2 (Homo sapiens, UniProt P25089); test: IP3 assay, HEK293 cells transiently transfected with FPRL2 and Gα16; format: cell-based; design: expressed in transfected cells; host or cells: HEK293 cells, transient, lipofectamine; details: FIG. 8
T1 sequence (P25089 1-353): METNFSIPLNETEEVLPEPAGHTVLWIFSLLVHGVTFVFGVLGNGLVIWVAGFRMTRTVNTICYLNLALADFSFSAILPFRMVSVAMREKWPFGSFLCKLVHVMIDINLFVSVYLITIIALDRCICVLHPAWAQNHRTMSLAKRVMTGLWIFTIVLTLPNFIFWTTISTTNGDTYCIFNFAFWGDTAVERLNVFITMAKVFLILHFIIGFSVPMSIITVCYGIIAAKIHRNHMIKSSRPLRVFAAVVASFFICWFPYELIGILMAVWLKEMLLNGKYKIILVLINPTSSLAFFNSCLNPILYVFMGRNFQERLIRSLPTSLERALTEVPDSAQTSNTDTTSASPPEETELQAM
Experimental: On day 1, cells comprising the receptors (endogenous and/or non-endogenous) can be plated onto 24 well plates, usually 1×10^5 cells/well (although his umber can be optimized. On day 2 cells can be transfected by firstly mixing 0.25 μg DNA in 50 μl serum free DMEM/well and 2 μl lipofectamine in 50 μl serum free DMEM/well. The solutions are gently mixed and incubated for 15-30 min at room temperature. Cells are washed with 0.5 ml PBS and 400 μl of serum free media is mixed with the transfection media and added to the cells. The cells are then incubated for 3-4 […] at 37° C./5% CO2 and then the transfection media is removed and replaced with 1 ml/well of regular growth media. On day 3 the cells are labeled with ^3H-myo-inositol. Briefly, the media is removed and the cells are washed with 0.5 ml PBS. Then 0.5 ml inositol-free/serum free media (GIBCO BRL) is added/well with 0.25 μCi of ^3H-myo-inositol/well and the cells are incubated for 16-18 hrs o/n at 37° C./5% CO2. On Day 4 the cells are washed with 0.5 ml PBS and 0.45 ml of assay medium is added containing inositol-free/serum free media 10 μM pargyline 10 mM lithium chloride or 0.4 ml of assay medium and 50 μl of 10× ketanserin (ket) to final concentration of 10 μM. The cells are then incubated for 30 min at 37° C. The cells are then washed with 0.5 ml PBS and 200 μl of fresh/ice cold stop solution (1M KOH; 18 mM Na-borate; 3.8 mM EDTA) is added/well. The solution is kept on ice for 5-10 min or until cells were lysed and then neutralized by 200 μl of fresh/ice cold neutralization sol. (7.5% HCL). The lysate is then transferred into 1.5 ml eppendorf tubes and 1 ml of chloroform/methanol (1:2) is added/tube. The solution is vortexed for 15 sec and the upper phase is applied to a Biorad AG1-X8™ anion exchange resin (100-200 mesh). […]
Briefly, HEK293 cells were transiently transfected with 6 μg FPRL2 plasmid DNA and 6 μg Gα16 plasmid DNA per 10^7 cells per 15 cm culture dish using lipofectamine (Invitrogen). […] The level of intracellular IP3 was determined as described in Example 4, supra.

[1] = tested on: differentiated SH-SY5Y cells; test: Aβ-induced cell death of differentiated SH-SY5Y cells; format: cell-based, human; details: AB1-42 80 μg/ml; Humanin 1 μM; Compound 1 20 μM, 5 μM or 1 μM; Trypan Blue staining; FIG. 12
Experimental: SH-SY5Y is a human neuroblastoma cell line. Differentiation of SH-SY5Y into neuronal-like cells was carried out by treatment with retinoic acid (10 μM) for five days followed by treatment with BDNF (10 ng/ml) for two days. Aβ (AB1-42) was purchased from Biosource International (Camarillo, Calif.; catalog no. 03-111).
The assay was carried out in serum-free medium. AB1-42 was used at 80 μg/ml. […] Compound 1 was used at either 20 μM, 5 μM or 1 μM.
Cell survival was determined by Trypan Blue staining.

[2] = tested on: primary mouse cortical neurons; test: 22C11 (anti-APP antibody)-induced cell death of primary mouse cortical neurons; format: cell-based; details: added 1 h prior to mAb 22C11; overnight (~18 h); LDH assay; FIG. 11B
Source text: 22C11 is a monoclonal antibody (mAb) which binds to the extracellular domain of the human, rat or mouse β-amyloid precursor protein (APP) (Boehringer Mannheim; Indianapolis, Ind.).
The assay was set up essentially as described by Rohn et al. [Neurochem (2000) 74:2331-2342]. Briefly, the primary cultures of mouse cortical neurons were established from E17 embryos. The gestational pups were humanely decapitated, and the brain was harvested into Hanks Buffered Salt Solution (HBSS) buffer. The cortices were taken and processed with trypsin (0.05% in HBSS), after which the cells were mechanically dissociated using a 21 g needle. The cell suspension was then passed through a […] filter, and the recovered cells plated on poly-D-lysine-treated 12-well plates. After five days of culture, the cells were used for assay.
For the assay, four experimental groups were set up. […] In the “22C11” group, cells were cultured in the presence of mAb 22C11 alone. […] The assay was allowed to proceed overnight (˜18 h), after which cell viability was determined by LDH assay as described in Example 25.

Row | Compound | Level of intracellular IP3 (FPRL2 coupling to Gα16) (FPRL2) | Protection from Aβ-induced cell death [1] | Protection from cell death induced by anti-APP mAb 22C11 [2]
1 | CC(C)c1ccc2c(c1)CCC1C(C)(C(N)=O)CCCC21C (stereo not shown) [Compound 1, 7-Isopropyl-1,4a-dimethyl-1,2,3,4,4a,9,10,10a-octahydro-phenanthrene-1-carboxylic acid amide] | dose-dependent elevation of the level of intracellular IP3 | protect differentiated SH-SY5Y cells from Aβ-induced cell death | protect primary mouse cortical neurons from cell death
2 | CC[C@H](C)[C@H](NC(=O)[C@H](CCC(=O)O)NC(=O)[C@H](CO)NC(=O)[C@@H](NC(=O)[C@H](CC(C)C)NC(=O)[C@H](CC(C)C)NC(=O)[C@H](CC(C)C)NC(=O)[C@H](CC(C)C)NC(=O)[C@H](CS)NC(=O)[C@H](CO)NC(=O)[C@H](Cc1ccccc1)NC(=O)CNC(=O)[C@H](CCCNC(=N)N)NC(=O)[C@@H]1CCCN1C(=O)[C@H](C)NC(=O)[C@@H](N)CCSC)[C@@H](C)O)C(=O)N[C@@H](CC(=O)O)C(=O)N[C@@H](CC(C)C)C(=O)N1CCC[C@H]1C(=O)N[C@H](C(=O)N[C@@H](CCCCN)C(=O)N[C@@H](CCCNC(=N)N)C(=O)N[C@@H](CCCNC(=N)N)C(=O)N[C@@H](C)C(=O)O)C(C)C [Humanin] | dose-dependent elevation of the level of intracellular IP3 | protect differentiated SH-SY5Y cells from Aβ-induced cell death | protect primary mouse cortical neurons from cell death
3 | MAPRGFSCLLLLTGEIDLPVKRRA [[Gly14]-Humanin] | dose-dependent elevation of the level of intracellular IP3 |  | 
